From patent US5089273A, “Ecteinascidins 729, 743, 745, 759A, 759B and 770” (priority 1990, dated 1992)
≈ marks a conversion by molar mass, not a printed value. Like-named read-outs stand apart in the source and are kept apart here.

Assays:
M. luteus = test: Antimicrobial activity vs. M. luteus (disk zones of inhibition); assay type: cell-based; conditions: for zone of inhibition at 0.2 µg/disc: 200 ng/6.35-mm disk; for times less potent than ecteinascidins 729 and 743: relative to ecteinascidins 729 and 743; for zone of inhibition at 0.1 µg/disc: 100 ng/6.35-mm disk
Experimental: (§1) The antimicrobial activities (vs. M. luteus) and the cytotoxic activities (vs. CV-1 cells) of the ecteinascidins and ecteinascidin 743 derivatives are shown in Table 1 and 2. […] All of the derivatives of ecteinascidin 743 that were prepared have antimicrobial and cytotoxic activities.

CV-1 cells = test: Cytotoxic activity vs. CV-1 cells (disk zones of inhibition); assay type: cell-based; conditions: for zone of inhibition at 0.05 µg/disc / zone of inhibition at 0.1 µg/disc / zone of inhibition at 0.2 µg/disc / zone of inhibition at 0.4 µg/disc / zone of inhibition at 0.8 µg/disc / zone of inhibition at 1.6 µg/disc: Cercopithecidae, read-out: Zones of Inhibition
Experimental: as §1

bacteria = test: Antibacterial Activity (disk zone of inhibition, Example 4); assay type: cell-based
From the text: | Zone of inhibition (mm)

[1] = system: L1210 mouse leukemia cells; test: L1210 Tube Dilution Assay; assay type: cell-based
From the text: The L1210 tube dilution assay is described in detail in a publication by L. H. Li, et al., Cancer Research, 39:4816 (1979). ID50 and ID90 refer to the concentration of ecteinascidin needed to inhibit cell growth by […], respectively.

P388 leukemia = test: In vivo P388 mouse leukemia test
From the text: Compounds of this invention are also active in vivo against P388 leukemia in mice. The P388 mouse leukemia test is described in detail in a publication by G. L. Neil et al., Cancer Treatment Reports, 63: 1971-1978 (1979).

Bacillus subtilis = test: Antimicrobial Spectrum, zones of inhibition; assay type: cell-based; conditions: 5 μg/disk, 6.35-mm disk
Bacillus subtilis syn = test: Antimicrobial Spectrum, zones of inhibition; assay type: cell-based; conditions: 5 μg/disk, 6.35-mm disk
Klebsiella pneumoniae = test: Antimicrobial Spectrum, zones of inhibition; assay type: cell-based; conditions: 5 μg/disk, 6.35-mm disk
Sarcina lutea sens. = test: Antimicrobial Spectrum, zones of inhibition; assay type: cell-based; conditions: Micrococcus luteus; 5 μg/disk; 6.35-mm disk
Escherichia coli = test: Antimicrobial Spectrum, zones of inhibition; assay type: cell-based; conditions: 5 μg/disk, 6.35-mm disk
Pseudomonas aeruginosa = test: Antimicrobial Spectrum, zones of inhibition; assay type: cell-based; conditions: 5 μg/disk, 6.35-mm disk
Staphylococcus aureus = test: Antimicrobial Spectrum, zones of inhibition; assay type: cell-based; conditions: 5 μg/disk, 6.35-mm disk
Mycobacterium avium = test: Antimicrobial Spectrum, zones of inhibition; assay type: cell-based; conditions: 5 μg/disk, 6.35-mm disk
Saccharomyces cerevisiae = test: Antimicrobial Spectrum, zones of inhibition; assay type: cell-based; conditions: 5 μg/disk, 6.35-mm disk
Penicillium oxalicum = test: Antimicrobial Spectrum, zones of inhibition; assay type: cell-based; conditions: 5 μg/disk, 6.35-mm disk
[2] = Micrococcus luteus, 400 ng/6.35-mm disk
[3] = Micrococcus luteus, 800 ng/6.35-mm disk
[4] = Micrococcus luteus, 1600 ng/6.35-mm disk

## COc1cc2c(cc1OC)[C@@]1(CS[C@@H]3c4c(OC(C)=O)c(C)c5c(c4[C@H](COC1=O)N1[C@@H]3[C@H]3c4c(cc(C)c(OC)c4O)C[C@@H]([C@@H]1O)N3C)OCO5)NCC2 [Mono- -- O-methyl, Mono-O-methylecteinascidin 743]
M. luteus; Micrococcus luteus
  zone of inhibition at 0.2 µg/disc: 8 mm
M. luteus; [2]
  zone of inhibition at 0.4 µg/disc: 11 mm
M. luteus; [3]
  zone of inhibition at 0.8 µg/disc: 14 mm
M. luteus; [4]
  zone of inhibition at 1.6 µg/disc: 14 mm
CV-1 cells
  zone of inhibition at 0.05 µg/disc: 13 mm
  zone of inhibition at 0.1 µg/disc: 22 mm
  zone of inhibition at 0.2 µg/disc: 20 mm
  zone of inhibition at 0.4 µg/disc: 23 mm
  zone of inhibition at 0.8 µg/disc: 25 mm
  zone of inhibition at 1.6 µg/disc: 26 mm

## COc1cc2c(cc1O)CCN[C@]21C[S+]([O-])[C@@H]2c3c(OC(C)=O)c(C)c4c(c3[C@H](COC1=O)N1[C@H]2[C@H]2c3c(cc(C)c(OC)c3O)C[C@@H]([C@H]1O)N2C)OCO4 (some centres unmarked) [Ecteinascidin 759B]
bacteria; 0.1 μg/disk
  Zone of inhibition: 9 mm
bacteria; 1 μg/disk
  Zone of inhibition: 15 mm
M. luteus; 400 ng/6.35-mm disk
  Zones of Inhibition: 10 mm
M. luteus; 800 ng/6.35-mm disk
  Zones of Inhibition: 13 mm
M. luteus; 1600 ng/6.35-mm disk
  Zones of Inhibition: 15 mm
M. luteus
  times less potent than ecteinascidins 729 and 743: four to eight times less potent
CV-1 cells; 100 ng/6.35-mm disk
  Zones of Inhibition: 11 mm
CV-1 cells; 200 ng/6.35-mm disk
  Zones of Inhibition: 13 mm
CV-1 cells; 400 ng/6.35-mm disk
  Zones of Inhibition: 15 mm
CV-1 cells; 800 ng/6.35-mm disk
  Zones of Inhibition: 22 mm
CV-1 cells; 1600 ng/6.35-mm disk
  Zones of Inhibition: 22 mm

## Ecteinascidin 759A
bacteria; 1 μg/disk
  Zone of inhibition: 9 mm
M. luteus; 800 ng/6.35-mm disk
  Zones of Inhibition: 8 mm
M. luteus; 1600 ng/6.35-mm disk
  Zones of Inhibition: 10 mm
M. luteus
  times less potent than ecteinascidins 729 and 743: four to eight times less potent
CV-1 cells; 400 ng/6.35-mm disk
  Zones of Inhibition: 10 mm
CV-1 cells; 800 ng/6.35-mm disk
  Zones of Inhibition: 16 mm
CV-1 cells; 1600 ng/6.35-mm disk
  Zones of Inhibition: 16 mm

## COc1cc2c(cc1OC(C)=O)CCN[C@]21CS[C@@H]2c3c(OC(C)=O)c(C)c4c(c3[C@H](COC1=O)N1[C@@H]2[C@H]2c3c(cc(C)c(OC)c3O)C[C@@H]([C@@H]1O)N2C)OCO4 [Monoacetyl, Acetylecteinascidin 743]
M. luteus; Micrococcus luteus, 50 ng/6.35-mm disk
  zone of inhibition at 0.05 µg/disc: 10 mm
M. luteus; Micrococcus luteus
  zone of inhibition at 0.1 µg/disc: 12 mm
  zone of inhibition at 0.2 µg/disc: 14 mm
M. luteus; [2]
  zone of inhibition at 0.4 µg/disc: 20 mm
M. luteus; [3]
  zone of inhibition at 0.8 µg/disc: 20 mm
M. luteus; [4]
  zone of inhibition at 1.6 µg/disc: 28 mm
M. luteus; relative to the original compound, antimicrobial and cytotoxic
  activity relative to ecteinascidin 743 (in words): enhanced activity over the original compound
CV-1 cells; 50 ng/6.35-mm disk
  zone of inhibition at 0.05 µg/disc: 18 mm
CV-1 cells; 100 ng/6.35-mm disk
  zone of inhibition at 0.1 µg/disc: 22 mm
CV-1 cells; 200 ng/6.35-mm disk
  zone of inhibition at 0.2 µg/disc: 22 mm
CV-1 cells; 400 ng/6.35-mm disk
  zone of inhibition at 0.4 µg/disc: 25 mm
CV-1 cells; 800 ng/6.35-mm disk
  zone of inhibition at 0.8 µg/disc: 28 mm
CV-1 cells; 1600 ng/6.35-mm disk
  zone of inhibition at 1.6 µg/disc: 30 mm

## COc1cc2c(cc1OC(=O)c1ccc(Br)cc1)CCN[C@]21CS[C@@H]2c3c(OC(C)=O)c(C)c4c(c3[C@H](COC1=O)N1[C@@H]2[C@H]2c3c(cc(C)c(OC)c3O)C[C@@H]([C@@H]1O)N2C)OCO4 [p-Bromobenzoyl, p-Bromobenzoylecteinascidin 743]
M. luteus; [2]
  zone of inhibition at 0.4 µg/disc: 8 mm
M. luteus; [3]
  zone of inhibition at 0.8 µg/disc: 10 mm
M. luteus; [4]
  zone of inhibition at 1.6 µg/disc: 12 mm
CV-1 cells; 200 ng/6.35-mm disk
  zone of inhibition at 0.2 µg/disc: 10 mm
CV-1 cells; 400 ng/6.35-mm disk
  zone of inhibition at 0.4 µg/disc: 12 mm
CV-1 cells; 800 ng/6.35-mm disk
  zone of inhibition at 0.8 µg/disc: 16 mm
CV-1 cells; 1600 ng/6.35-mm disk
  zone of inhibition at 1.6 µg/disc: 18 mm

## COc1cc2c(cc1O)CCN[C@]21CS[C@@H]2c3c(OC(C)=O)c(C)c4c(c3[C@H](COC1=O)N1[C@@H]2[C@H]2c3c(cc(C)c(OC)c3O)C[C@@H]([C@@H]1C#N)N2C)OCO4 [Ecteinascidin 770]
bacteria; 0.1 μg/disk
  Zone of inhibition: trace
bacteria; 1 μg/disk
  zone of inhibition at 1 µg/disc: 14 mm
M. luteus; [2]
  zone of inhibition at 0.4 µg/disc: 9 mm
M. luteus; [3]
  zone of inhibition at 0.8 µg/disc: 12 mm
M. luteus; [4]
  zone of inhibition at 1.6 µg/disc: 15 mm
M. luteus
  times less potent than ecteinascidins 729 and 743: four to eight times less potent
CV-1 cells; 50 ng/6.35-mm disk
  zone of inhibition at 0.05 µg/disc: 10 mm
CV-1 cells; 100 ng/6.35-mm disk
  zone of inhibition at 0.1 µg/disc: 14 mm
CV-1 cells; 200 ng/6.35-mm disk
  zone of inhibition at 0.2 µg/disc: 16 mm
CV-1 cells; 400 ng/6.35-mm disk
  zone of inhibition at 0.4 µg/disc: 20 mm
CV-1 cells; 800 ng/6.35-mm disk
  zone of inhibition at 0.8 µg/disc: 24 mm
CV-1 cells; 1600 ng/6.35-mm disk
  zone of inhibition at 1.6 µg/disc: 25 mm

## COc1cc2c(cc1O)CCN[C@]21CS[C@@H]2c3c(O)c(C)c4c(c3[C@H](COC1=O)N1[C@@H]2[C@H]2c3c(cc(C)c(OC)c3O)C[C@@H]([C@@H]1O)N2C)OCO4 [Deacetyl, Deacetylecteinascidin 743]
M. luteus; Micrococcus luteus
  zone of inhibition at 0.1 µg/disc: 8 mm
  zone of inhibition at 0.2 µg/disc: 10 mm
M. luteus; [2]
  zone of inhibition at 0.4 µg/disc: 12 mm
M. luteus; [3]
  zone of inhibition at 0.8 µg/disc: 14 mm
M. luteus; [4]
  zone of inhibition at 1.6 µg/disc: 16 mm
CV-1 cells; 400 ng/6.35-mm disk
  zone of inhibition at 0.4 µg/disc: 11 mm
CV-1 cells; 800 ng/6.35-mm disk
  zone of inhibition at 0.8 µg/disc: 15 mm
CV-1 cells; 1600 ng/6.35-mm disk
  zone of inhibition at 1.6 µg/disc: 16 mm

## COc1cc2c(cc1OC)[C@@]1(CS[C@@H]3c4c(OC(C)=O)c(C)c5c(c4[C@H](COC1=O)N1[C@@H]3[C@H]3c4c(cc(C)c(OC)c4OC)C[C@@H]([C@@H]1O)N3C)OCO5)NCC2 [Di- -- O-methyl, Di-O-methylecteinascidin 743]
M. luteus; [3]
  zone of inhibition at 0.8 µg/disc: 8 mm
M. luteus; [4]
  zone of inhibition at 1.6 µg/disc: 11 mm
CV-1 cells
  zone of inhibition at 0.05 µg/disc: 13 mm
  zone of inhibition at 0.1 µg/disc: 15 mm
  zone of inhibition at 0.2 µg/disc: 17 mm
  zone of inhibition at 0.4 µg/disc: 13 mm
  zone of inhibition at 0.8 µg/disc: 16 mm
  zone of inhibition at 1.6 µg/disc: 18 mm

## COc1cc2c(cc1O)CCN[C@]21CS[C@@H]2c3c(OC(C)=O)c(C)c4c(c3[C@H](COC1=O)N1C[C@@H]3Cc5cc(C)c(OC)c(O)c5[C@H]([C@H]21)N3C)OCO4 [Ecteinascidin 745]
bacteria; 20 μg/disk
  Zone of inhibition: trace
bacteria; 40 μg/disk
  zone of inhibition at 40 µg/disc: 7 mm
[1]; L1210, concentration needed to inhibit cell growth by 90 percent, in vitro, read-out: ID90 (the source's name)
  IC90: 0.19 µg/mL (≈ 0.255 µM)
[1]; L1210, read-out: ID50
  IC50: 0.088 µg/mL (≈ 0.118 µM)
P388 leukemia; 0.25 mg/kg, Example 6
  T/C: ca. 100
P388 leukemia; 0.25 mg/kg, Table 4
  T/C (%): 111%
P388 leukemia; mouse, in vivo
  antitumor activity (in words): greatly reduced activity
M. luteus; dilutions accurate to within a factor of 2
  antimicrobial activity (in words): greatly reduced activity
M. luteus
  times less potent than ecteinascidins 729 and 743: ~32 times
CV-1 cells
  cytotoxic activity (in words): greatly reduced activity
CV-1 cells; 800 ng/6.35-mm disk
  zone of inhibition at 0.8 µg/disc: 9 mm
CV-1 cells; 1600 ng/6.35-mm disk
  zone of inhibition at 1.6 µg/disc: 14 mm
Bacillus subtilis
  zone of inhibition at 5 µg/disc: 0 mm
Bacillus subtilis syn
  zone of inhibition at 5 µg/disc: 0 mm
Klebsiella pneumoniae
  zone of inhibition at 5 µg/disc: 0 mm
Sarcina lutea sens.
  zone of inhibition at 5 µg/disc: 18 mm
Escherichia coli
  zone of inhibition at 5 µg/disc: 0 mm
Pseudomonas aeruginosa
  zone of inhibition at 5 µg/disc: 0 mm
Staphylococcus aureus
  zone of inhibition at 5 µg/disc: 0 mm
Mycobacterium avium
  zone of inhibition at 5 µg/disc: 0 mm
Saccharomyces cerevisiae
  zone of inhibition at 5 µg/disc: 0 mm
Penicillium oxalicum
  zone of inhibition at 5 µg/disc: 0 mm
